Reference: patent publication US7470690B2, “4-(2-Fluorophenyl)-6-methyl-2-(1-piperazinyl)thieno[2,3-D)pyrimidine in the treatment of functional bowel disorder” (Dynogen Pharmaceuticals, Inc., priority 2002, dated 2008)

Test system: male Sprague-Dawley rats
Assay: Inhibition of the reflex depressor response to colorectal distension in anaesthetised rats
Type: in vivo, rat
Conditions: for Fall in arterial blood pressure (mean absolute decrease in mean arterial pressure, standard error of mean in brackets) evoked by distension of the balloon: following MCI-225 3 mg/kg i.v.
From the text: The data on which this invention is based will now be described. In a study using intact animals, the ability of a drug to inhibit the reflex depressor response to colorectal distension can be assessed. In this model, an inhibition of the reflex indicates modulation of visceral nociceptive neurotransmission and, therefore, the use of the drug in functional bowel disease (e.g. IBS); see Kozlowski et al, 2000, Gut 46, 474-480. Allodynia and visceral pain are important components of functional bowel disease.
Experiments were performed on male Sprague-Dawley rats (250-300 g). Anaesthesia was induced with isoflurane (2.5% in oxygen) and maintained with alpha chlorolose (80 mg/kg i.v.). The left carotid artery was cannulated for the measurement of blood pressure and heart rate and the left jugular vein cannulated for drug administration. A tracheal cannula was implanted for artificial respiration if required. A 10 mm long latex balloon was inserted intrarectally so that the tip of the balloon was 20 mm from the anal verge (Kozlowski et al, supra). The balloon was connected via a double lumen cannula to a pressure transducer and also to a saline-filled syringe for inflation/deflation of the balloon. Throughout the experiment, body temperature was kept constant at 36-38 C using a homeothermic blanket.
Once stable baseline parameters were obtained (approximately after 20 minutes), the balloon was rapidly inflated with increasing volumes of saline (0.5-2.5 ml) for 30 seconds at 5 minute intervals, and the resultant change in blood pressure recorded. Three distinct response curves were constructed, with a 10 minute stabilisation period between each curve. In one group of animals, 10 minutes prior to the commencement of the final distension response curve, a single bolus of MCI-225 (3 mg/kg) was administered intravenously; in a second group of animals, a single bolus dose of vehicle was administered. The effect of MCI-225 and vehicle was determined by analysing the changes in colorectal distension that evoked depressor response.

For `Cc1cc2c(-c3ccccc3F)nc(N3CCNCC3)nc2s1.Cl.O` [MCI-225, 4-(2-Fluorophenyl)-6-methyl-2-(1-piperazinyl)thieno[2,3-D]pyrimidine monohydrate hydrochloride], the “Effect on distension-induced falls in blood pressure (in words)” value (3 mg/kg i.v., colorectal balloon distension) was “inhibited the distension-induced falls in blood pressure”, the “Fall in arterial blood pressure (mean absolute decrease in mean arterial pressure, standard error of mean in brackets) evoked by distension of the balloon” value (0.5 ml balloon volume, n=6) was 2.2 (1.65) mmHg and the “Fall in arterial blood pressure (mean absolute decrease in mean arterial pressure, standard error of mean in brackets) evoked by distension of the balloon” value (1.0 ml balloon volume, n=6) was 6.3 (2.6) mmHg. For the same compound, the “Fall in arterial blood pressure (mean absolute decrease in mean arterial pressure, standard error of mean in brackets) evoked by distension of the balloon” value (1.5 ml balloon volume, n=6) was 10.6 (3.9) mmHg, the “Fall in arterial blood pressure (mean absolute decrease in mean arterial pressure, standard error of mean in brackets) evoked by distension of the balloon” value (2.0 ml balloon volume, n=6, p less than 0.01 vs before drug (paired t test)) was 15.3 (5.4) mmHg and the “Fall in arterial blood pressure (mean absolute decrease in mean arterial pressure, standard error of mean in brackets) evoked by distension of the balloon” value (2.5 ml balloon volume, n=5, p less than 0.05 vs before drug (paired t test)) was 24.6 (7.3) mmHg.
